According to article PMC3000536 (Tetrahedron letters, 2011):
“Also recorded” adds a separate entry of the source.

How the values were obtained:
[1] = target: Coffee beans α-Galactosidase (Coffea arabica, UniProt Q42656); test: Glycosidase inhibition, coffee beans α-galactosidase; type: biochemical
Rice α-Glucosidase = Rice α-Glucosidase (Oryza sativa subsp. japonica, UniProt Q653V7); test: Glycosidase inhibition, rice α-glucosidase; type: biochemical
[2] = target: Bovine liver β-Galactosidase; test: Glycosidase inhibition, bovine liver β-galactosidase; type: biochemical; details: read-out: IC50 β-Galactosidase Bovine liver
Rat intestinal lactase = target: T1, Rat intestinal lactase (Rattus norvegicus, UniProt Q02401); test: Glycosidase inhibition, rat intestinal lactase; type: biochemical
T1 sequence (Q02401 868-1928): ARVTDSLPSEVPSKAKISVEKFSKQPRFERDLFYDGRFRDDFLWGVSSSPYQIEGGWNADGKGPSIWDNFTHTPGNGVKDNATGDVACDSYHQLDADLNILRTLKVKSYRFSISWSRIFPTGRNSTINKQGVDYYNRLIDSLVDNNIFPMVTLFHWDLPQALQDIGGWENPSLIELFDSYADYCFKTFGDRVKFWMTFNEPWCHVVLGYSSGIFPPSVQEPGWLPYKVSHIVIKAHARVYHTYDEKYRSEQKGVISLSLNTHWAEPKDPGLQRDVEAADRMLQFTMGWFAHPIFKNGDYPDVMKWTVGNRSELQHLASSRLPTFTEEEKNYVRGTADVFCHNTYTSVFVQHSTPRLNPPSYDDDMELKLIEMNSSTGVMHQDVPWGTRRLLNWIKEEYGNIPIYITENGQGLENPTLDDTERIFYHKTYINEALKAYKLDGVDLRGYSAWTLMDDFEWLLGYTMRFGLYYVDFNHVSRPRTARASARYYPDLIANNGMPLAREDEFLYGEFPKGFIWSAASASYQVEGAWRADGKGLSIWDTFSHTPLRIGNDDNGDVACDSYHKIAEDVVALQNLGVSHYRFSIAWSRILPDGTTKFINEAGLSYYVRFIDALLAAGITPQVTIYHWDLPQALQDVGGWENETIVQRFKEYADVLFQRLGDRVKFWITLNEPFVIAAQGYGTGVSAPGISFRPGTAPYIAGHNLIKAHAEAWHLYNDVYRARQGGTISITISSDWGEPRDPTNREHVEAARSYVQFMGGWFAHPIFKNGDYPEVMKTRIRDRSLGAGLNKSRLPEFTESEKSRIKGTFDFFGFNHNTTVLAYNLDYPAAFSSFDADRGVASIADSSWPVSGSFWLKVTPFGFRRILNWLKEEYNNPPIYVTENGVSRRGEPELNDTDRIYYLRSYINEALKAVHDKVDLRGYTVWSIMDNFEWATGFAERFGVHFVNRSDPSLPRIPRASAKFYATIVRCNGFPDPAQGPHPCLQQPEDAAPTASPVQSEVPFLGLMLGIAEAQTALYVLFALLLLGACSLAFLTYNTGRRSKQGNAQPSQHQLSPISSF

Snail β-Mannosidase = test: Glycosidase inhibition, snail β-mannosidase; type: biochemical; details: read-out: IC50 β-Mannosidase Snail
[3] = target: T2, Bovine epididymis α-L-Fucosidase (Bos taurus, UniProt Q2KIM0); test: Glycosidase inhibition, bovine epididymis α-L-fucosidase; type: biochemical
T2 sequence (Q2KIM0 23-468): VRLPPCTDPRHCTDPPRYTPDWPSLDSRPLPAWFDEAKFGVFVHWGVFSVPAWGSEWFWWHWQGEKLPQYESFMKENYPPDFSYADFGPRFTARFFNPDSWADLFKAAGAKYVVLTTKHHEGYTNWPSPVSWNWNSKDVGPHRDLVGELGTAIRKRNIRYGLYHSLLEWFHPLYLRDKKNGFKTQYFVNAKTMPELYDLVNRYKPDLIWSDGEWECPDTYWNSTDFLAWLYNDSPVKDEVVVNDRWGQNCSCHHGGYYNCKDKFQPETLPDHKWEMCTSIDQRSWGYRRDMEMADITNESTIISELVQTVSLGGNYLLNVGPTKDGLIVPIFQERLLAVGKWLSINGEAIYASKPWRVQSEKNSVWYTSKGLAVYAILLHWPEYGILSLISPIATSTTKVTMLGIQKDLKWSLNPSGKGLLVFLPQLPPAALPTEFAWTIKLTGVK

Rat intestinal sucrase = Rat intestinal sucrase (Rattus norvegicus, UniProt P23739); test: Glycosidase inhibition and kinetic analysis, rat intestinal sucrase; details: for Mode of inhibition of rat intestinal sucrase: kinetic analysis
[4] = target: T3, Rat intestinal cellobiase (Rattus norvegicus, UniProt Q02401); test: Glycosidase inhibition, rat intestinal cellobiase; type: biochemical
T3 sequence (Q02401 868-1928): T1 sequence (Q02401 868-1928)

[5] = target: Rat intestinal isomaltase (Rattus norvegicus, UniProt P23739); test: Glycosidase inhibition, rat intestinal isomaltase; type: biochemical
ER glucosidases = details: cited from earlier work
F508del-CFTR [6] = details: ref viii; cited from earlier work
Almond β-Glucosidase = test: Glycosidase inhibition, almond β-glucosidase; type: biochemical; details: read-out: IC50 β-Glucosidase Almond
Jack beans α-Mannosidase = target: T4, Jack beans α-Mannosidase (Canavalia ensiformis, UniProt C0HJB3); test: Glycosidase inhibition, jack beans α-mannosidase; type: biochemical
T4 sequence (C0HJB3 1-981): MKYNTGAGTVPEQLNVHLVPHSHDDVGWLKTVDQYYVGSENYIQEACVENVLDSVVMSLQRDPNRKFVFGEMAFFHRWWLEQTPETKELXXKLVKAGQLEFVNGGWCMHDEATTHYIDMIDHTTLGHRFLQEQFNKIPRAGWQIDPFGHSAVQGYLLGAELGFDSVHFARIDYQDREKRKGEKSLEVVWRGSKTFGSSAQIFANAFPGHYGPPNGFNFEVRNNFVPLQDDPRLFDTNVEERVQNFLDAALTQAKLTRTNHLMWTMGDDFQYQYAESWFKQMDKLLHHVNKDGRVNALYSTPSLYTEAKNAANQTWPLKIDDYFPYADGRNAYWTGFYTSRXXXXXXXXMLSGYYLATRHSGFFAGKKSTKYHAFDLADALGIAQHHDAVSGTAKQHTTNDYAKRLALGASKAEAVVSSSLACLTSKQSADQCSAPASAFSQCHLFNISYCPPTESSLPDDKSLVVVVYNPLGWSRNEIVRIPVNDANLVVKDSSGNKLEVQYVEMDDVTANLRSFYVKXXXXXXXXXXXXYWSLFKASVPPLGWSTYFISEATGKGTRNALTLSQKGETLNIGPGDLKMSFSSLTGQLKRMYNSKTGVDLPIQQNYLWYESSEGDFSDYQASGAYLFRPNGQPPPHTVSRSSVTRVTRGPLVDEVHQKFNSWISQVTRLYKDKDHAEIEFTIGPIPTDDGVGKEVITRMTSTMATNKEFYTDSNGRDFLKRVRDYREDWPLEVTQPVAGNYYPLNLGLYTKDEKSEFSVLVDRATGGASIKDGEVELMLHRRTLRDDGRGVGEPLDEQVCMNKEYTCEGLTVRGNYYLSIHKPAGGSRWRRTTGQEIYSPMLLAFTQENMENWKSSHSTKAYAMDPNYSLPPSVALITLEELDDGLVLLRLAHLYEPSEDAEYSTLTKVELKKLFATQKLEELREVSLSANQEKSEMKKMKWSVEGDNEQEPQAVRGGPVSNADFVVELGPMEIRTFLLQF

Rat intestinal maltase = test: Glycosidase inhibition, rat intestinal maltase; type: biochemical; details: read-out: IC50 α-Glucosidase Rat intestinal maltase
[7] = target: T5, Human lysosome α-Galactosidase (Homo sapiens, UniProt P06280); test: Glycosidase inhibition, human lysosome α-galactosidase; type: biochemical
T5 sequence (P06280 32-429): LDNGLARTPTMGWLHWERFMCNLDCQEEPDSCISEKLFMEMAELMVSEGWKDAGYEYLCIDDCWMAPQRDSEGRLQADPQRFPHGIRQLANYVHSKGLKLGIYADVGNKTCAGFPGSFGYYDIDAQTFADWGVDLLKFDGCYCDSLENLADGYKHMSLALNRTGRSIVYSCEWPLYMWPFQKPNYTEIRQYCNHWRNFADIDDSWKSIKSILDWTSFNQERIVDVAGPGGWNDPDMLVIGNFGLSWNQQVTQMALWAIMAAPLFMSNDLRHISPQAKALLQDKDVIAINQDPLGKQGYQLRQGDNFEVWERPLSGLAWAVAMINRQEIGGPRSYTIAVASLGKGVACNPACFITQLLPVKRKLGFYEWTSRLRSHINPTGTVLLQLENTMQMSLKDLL

[8] = target: T6, Rabbit muscle Glycogen phosphorylase (Oryctolagus cuniculus, UniProt P00489); test: Glycogen phosphorylase inhibition, rabbit muscle; type: biochemical
T6 sequence (P00489 1-843): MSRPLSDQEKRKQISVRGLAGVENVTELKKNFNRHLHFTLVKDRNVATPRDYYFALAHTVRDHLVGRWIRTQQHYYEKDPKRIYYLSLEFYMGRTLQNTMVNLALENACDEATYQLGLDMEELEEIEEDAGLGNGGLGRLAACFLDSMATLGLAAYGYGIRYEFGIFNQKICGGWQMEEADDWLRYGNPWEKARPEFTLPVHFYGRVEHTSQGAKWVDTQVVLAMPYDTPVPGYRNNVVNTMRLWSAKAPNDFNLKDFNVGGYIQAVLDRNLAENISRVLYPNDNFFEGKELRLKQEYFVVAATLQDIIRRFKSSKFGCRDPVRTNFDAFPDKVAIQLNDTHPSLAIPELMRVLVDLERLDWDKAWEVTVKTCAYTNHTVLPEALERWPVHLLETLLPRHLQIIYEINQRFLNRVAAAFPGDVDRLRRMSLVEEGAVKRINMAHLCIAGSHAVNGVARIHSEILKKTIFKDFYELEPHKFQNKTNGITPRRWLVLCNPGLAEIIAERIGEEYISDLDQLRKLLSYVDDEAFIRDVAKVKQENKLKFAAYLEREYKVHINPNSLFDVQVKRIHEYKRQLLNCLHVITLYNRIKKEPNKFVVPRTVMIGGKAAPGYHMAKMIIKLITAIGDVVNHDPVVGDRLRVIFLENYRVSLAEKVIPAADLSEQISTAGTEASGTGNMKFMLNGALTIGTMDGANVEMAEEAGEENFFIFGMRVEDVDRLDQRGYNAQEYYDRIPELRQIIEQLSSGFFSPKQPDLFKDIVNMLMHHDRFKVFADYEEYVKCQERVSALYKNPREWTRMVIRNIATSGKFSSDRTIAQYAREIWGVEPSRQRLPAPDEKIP

F508del-CFTR [9] = target: F508del-CFTR (Homo sapiens, UniProt P13569, DEL508-508); test: CFTR function in CF-KM4 cells by single-cell fluorescence imaging; type: cell-based

Sequence of Rat intestinal sucrase (P23739 whole entry): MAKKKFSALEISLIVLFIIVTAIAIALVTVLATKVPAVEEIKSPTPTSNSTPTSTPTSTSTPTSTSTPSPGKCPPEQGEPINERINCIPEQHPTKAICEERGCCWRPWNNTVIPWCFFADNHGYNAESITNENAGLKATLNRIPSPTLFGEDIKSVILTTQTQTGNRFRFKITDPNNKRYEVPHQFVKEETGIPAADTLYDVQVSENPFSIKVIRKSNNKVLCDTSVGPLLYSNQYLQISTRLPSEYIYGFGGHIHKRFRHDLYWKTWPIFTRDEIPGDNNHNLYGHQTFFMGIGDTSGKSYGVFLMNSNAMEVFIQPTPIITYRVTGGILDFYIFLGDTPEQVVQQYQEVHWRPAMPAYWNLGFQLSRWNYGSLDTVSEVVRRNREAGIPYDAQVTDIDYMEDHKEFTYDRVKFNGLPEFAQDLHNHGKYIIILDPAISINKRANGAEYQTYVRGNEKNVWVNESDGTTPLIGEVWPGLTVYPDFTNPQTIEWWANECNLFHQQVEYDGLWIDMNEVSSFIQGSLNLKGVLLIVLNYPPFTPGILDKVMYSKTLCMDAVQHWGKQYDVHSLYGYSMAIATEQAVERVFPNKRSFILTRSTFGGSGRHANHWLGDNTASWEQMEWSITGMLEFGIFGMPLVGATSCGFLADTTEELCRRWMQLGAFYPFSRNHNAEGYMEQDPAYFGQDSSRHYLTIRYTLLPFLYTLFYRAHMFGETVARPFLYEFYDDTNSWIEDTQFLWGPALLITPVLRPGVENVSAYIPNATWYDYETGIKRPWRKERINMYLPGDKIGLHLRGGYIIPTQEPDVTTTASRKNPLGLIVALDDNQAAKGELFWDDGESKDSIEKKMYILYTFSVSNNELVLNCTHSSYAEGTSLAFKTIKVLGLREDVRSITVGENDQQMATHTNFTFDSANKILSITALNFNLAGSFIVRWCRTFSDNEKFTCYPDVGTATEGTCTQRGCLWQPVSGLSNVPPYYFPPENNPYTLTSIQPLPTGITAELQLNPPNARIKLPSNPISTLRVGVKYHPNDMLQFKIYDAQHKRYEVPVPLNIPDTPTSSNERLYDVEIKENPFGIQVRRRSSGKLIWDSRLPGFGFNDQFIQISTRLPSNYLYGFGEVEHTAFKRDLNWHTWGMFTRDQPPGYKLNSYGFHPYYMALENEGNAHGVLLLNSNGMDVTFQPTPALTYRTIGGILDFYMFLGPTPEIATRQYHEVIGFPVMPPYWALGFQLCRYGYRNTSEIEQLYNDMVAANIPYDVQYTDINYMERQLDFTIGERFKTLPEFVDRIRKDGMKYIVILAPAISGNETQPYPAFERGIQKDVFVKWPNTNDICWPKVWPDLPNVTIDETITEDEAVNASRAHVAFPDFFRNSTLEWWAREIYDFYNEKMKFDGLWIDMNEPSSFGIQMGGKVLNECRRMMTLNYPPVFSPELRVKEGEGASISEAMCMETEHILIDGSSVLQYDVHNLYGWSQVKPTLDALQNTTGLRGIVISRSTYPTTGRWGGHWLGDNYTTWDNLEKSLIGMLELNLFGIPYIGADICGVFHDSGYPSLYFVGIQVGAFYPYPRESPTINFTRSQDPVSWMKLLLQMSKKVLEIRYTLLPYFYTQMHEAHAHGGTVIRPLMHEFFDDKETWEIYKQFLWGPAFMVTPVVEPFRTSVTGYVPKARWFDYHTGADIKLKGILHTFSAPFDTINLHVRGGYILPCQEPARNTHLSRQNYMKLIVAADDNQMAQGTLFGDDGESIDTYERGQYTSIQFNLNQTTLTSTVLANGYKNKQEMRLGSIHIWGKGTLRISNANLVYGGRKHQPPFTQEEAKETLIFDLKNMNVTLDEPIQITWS
Sequence of Rat intestinal isomaltase (P23739 whole entry): as above
Sequence of Coffee beans α-Galactosidase (Q42656 16-378): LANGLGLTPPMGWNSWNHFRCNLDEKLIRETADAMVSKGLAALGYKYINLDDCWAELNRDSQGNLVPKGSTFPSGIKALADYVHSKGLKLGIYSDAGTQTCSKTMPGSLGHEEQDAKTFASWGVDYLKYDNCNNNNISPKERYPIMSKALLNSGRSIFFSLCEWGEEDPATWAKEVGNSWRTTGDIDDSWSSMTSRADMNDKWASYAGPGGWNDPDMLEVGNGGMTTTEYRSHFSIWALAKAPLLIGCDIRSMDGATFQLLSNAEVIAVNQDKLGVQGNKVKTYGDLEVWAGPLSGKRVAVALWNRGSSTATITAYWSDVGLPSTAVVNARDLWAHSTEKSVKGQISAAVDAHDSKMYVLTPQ
Sequence of Rice α-Glucosidase (Q653V7 34-885): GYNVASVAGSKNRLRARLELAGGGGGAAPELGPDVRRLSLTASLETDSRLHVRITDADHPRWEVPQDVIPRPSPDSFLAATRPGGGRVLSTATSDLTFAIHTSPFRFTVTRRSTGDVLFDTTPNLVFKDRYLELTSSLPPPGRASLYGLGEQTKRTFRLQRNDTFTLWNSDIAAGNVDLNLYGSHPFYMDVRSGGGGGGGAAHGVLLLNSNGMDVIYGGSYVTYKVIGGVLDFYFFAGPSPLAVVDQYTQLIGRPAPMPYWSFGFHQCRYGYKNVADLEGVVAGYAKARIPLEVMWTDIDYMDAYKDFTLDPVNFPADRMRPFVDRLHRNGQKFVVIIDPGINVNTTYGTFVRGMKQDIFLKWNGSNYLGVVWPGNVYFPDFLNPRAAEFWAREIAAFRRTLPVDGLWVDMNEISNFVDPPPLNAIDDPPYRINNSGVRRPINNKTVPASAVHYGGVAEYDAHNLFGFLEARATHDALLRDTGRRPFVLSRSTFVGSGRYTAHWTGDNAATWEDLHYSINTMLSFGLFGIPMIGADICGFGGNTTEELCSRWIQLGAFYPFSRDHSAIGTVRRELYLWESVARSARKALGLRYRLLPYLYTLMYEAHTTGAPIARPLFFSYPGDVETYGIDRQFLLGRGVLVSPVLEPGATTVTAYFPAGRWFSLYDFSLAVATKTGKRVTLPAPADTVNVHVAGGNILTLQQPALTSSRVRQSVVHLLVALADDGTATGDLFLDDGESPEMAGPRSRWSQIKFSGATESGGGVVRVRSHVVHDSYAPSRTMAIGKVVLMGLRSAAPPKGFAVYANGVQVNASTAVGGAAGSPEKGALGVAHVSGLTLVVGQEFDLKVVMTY

## OC[C@]1(O)CNC[C@@H]1O [isoLAB 2L]
[1]
  IC50: > 1 mM
Rice α-Glucosidase
  IC50: > 1000 µM
[2]
  IC50: > 1 mM
Rat intestinal lactase
  IC50: > 1 mM
Snail β-Mannosidase
  IC50: > 1 mM
[3]
  IC50: > 1 mM
Rat intestinal sucrase
  IC50: > 1000 µM
[4]
  IC50: > 1 mM
[5]
  IC50: > 1000 µM
ER glucosidases
  Inhibition of ER glucosidases: neither of which showed any inhibition
F508del-CFTR [6]
  Rescue of the defective F508del-CFTR function: significant rescue; also recorded: partially rescues
Almond β-Glucosidase
  IC50: > 1 mM
Jack beans α-Mannosidase
  IC50: > 1 mM
Rat intestinal maltase
  IC50: > 1000 µM
[7]
  IC50: > 1 mM
[8]
  IC50: > 1 mM
  Inhibition of glycogen phosphorylase (in words): no significant inhibition

## C[C@@]1(CO)NC[C@H](O)[C@H]1O [4-C-Me-LAB 1L]
[1]
  IC50: > 1 mM
Rice α-Glucosidase
  IC50: 5.8 µM
[2]
  IC50: > 1 mM
Rat intestinal lactase
  IC50: > 1 mM
Snail β-Mannosidase
  IC50: > 1 mM
[3]
  IC50: > 1 mM
Rat intestinal sucrase
  Ki: 950 nM
Rat intestinal sucrase; listed as 1L
  Mode of inhibition of rat intestinal sucrase: non-competitive inhibitor
Rat intestinal sucrase; listed as 4-C-Me-LAB
  Mode of inhibition of rat intestinal sucrase: non-competitive
[4]
  IC50: > 1 mM
[5]
  IC50: 5.1 µM
F508del-CFTR [9]
  Corrector effect on CFTR function: Neither of the 4-C-methyl pyrrolidines 1D and 1L had any corrector effect
Almond β-Glucosidase
  IC50: > 1 mM
Jack beans α-Mannosidase
  IC50: > 1 mM
Rat intestinal maltase
  IC50: 2.4 µM
[7]
  IC50: > 1 mM
[8]
  IC50: > 1 mM
  Inhibition of glycogen phosphorylase (in words): no significant inhibition

## OC[C@H]1NC[C@@H](O)[C@@H]1O [DAB 3D]
[1]
  IC50: > 1 mM
[2]
  IC50: > 1 mM
Snail β-Mannosidase
  IC50: > 1 mM
[3]
  IC50: > 1 mM
[4]
  IC50: 0.756 mM
Almond β-Glucosidase
  IC50: 0.25 mM

## C[C@]1(CO)NC[C@@H](O)[C@@H]1O [4-C-Me-DAB 1D, 1,4-dideoxy-1,4-imino-4-C-methyl-D-arabinitol]
[1]
  IC50: > 1 mM
Rice α-Glucosidase
  IC50: 7.1 µM
[2]
  IC50: > 1 mM
Rat intestinal lactase
  IC50: > 1 mM
Snail β-Mannosidase
  IC50: > 1 mM
[3]
  IC50: > 1 mM
Rat intestinal sucrase
  IC50: 0.41 µM
  Ki: 890 nM
Rat intestinal sucrase; listed as 1D
  Mode of inhibition of rat intestinal sucrase: competitive inhibitor
Rat intestinal sucrase; listed as 4-C-Me-DAB
  Mode of inhibition of rat intestinal sucrase: competitive
[4]
  IC50: > 1 mM
[5]
  IC50: 3.4 µM
F508del-CFTR [9]
  Corrector effect on CFTR function: Neither of the 4-C-methyl pyrrolidines 1D and 1L had any corrector effect
Almond β-Glucosidase
  IC50: > 1 mM
Jack beans α-Mannosidase
  IC50: > 1 mM
Rat intestinal maltase
  IC50: 0.74 µM
[7]
  IC50: > 1 mM
[8]
  IC50: > 1 mM
  Inhibition of glycogen phosphorylase (in words): no significant inhibition

## OC[C@@]1(O)CNC[C@H]1O [isoDAB 2D]
[1]
  IC50: > 1 mM
Rice α-Glucosidase
  IC50: 41 µM
[2]
  IC50: > 1 mM
Rat intestinal lactase
  IC50: > 1 mM
Snail β-Mannosidase
  IC50: > 1 mM
[3]
  IC50: > 1 mM
Rat intestinal sucrase
  IC50: 15 µM
[4]
  IC50: > 1 mM
[5]
  IC50: 20 µM
Almond β-Glucosidase
  IC50: > 1 mM
Jack beans α-Mannosidase
  IC50: > 1 mM
Rat intestinal maltase
  IC50: 24 µM
[7]
  IC50: > 1 mM
[8]
  IC50: > 1 mM
  Inhibition of glycogen phosphorylase (in words): no significant inhibition

## OC[C@@H]1NC[C@H](O)[C@H]1O [LAB 3L]
[1]
  IC50: > 1 mM
[2]
  IC50: > 1 mM
Snail β-Mannosidase
  IC50: > 1 mM
[3]
  IC50: > 1 mM
[4]
  IC50: > 1 mM
Almond β-Glucosidase
  IC50: > 1 mM
Jack beans α-Mannosidase
  IC50: > 1 mM
